Measured values taken from patent publication US10000488B2, “Heterocyclic compound” (TAKEDA PHARMACEUTICAL COMPANY LIMITED, priority 2014, dated 2018).
Counter-ions that a name gives are not always drawn.

Experiments:
RORγt [1] = target: T1, RORγt (Homo sapiens, UniProt P51449); assay: Jurkat reporter test (human IL-17 ROR response element luciferase reporter, RORγt vector); assay type: cell-based; conditions: Jurkat cells; for inhibition at 3 µM: test compound 3 μM, read-out: luminescence level inhibitory rate (%) at test compound 3 μM
T1 sequence (P51449 1-497 isoform P51449-2): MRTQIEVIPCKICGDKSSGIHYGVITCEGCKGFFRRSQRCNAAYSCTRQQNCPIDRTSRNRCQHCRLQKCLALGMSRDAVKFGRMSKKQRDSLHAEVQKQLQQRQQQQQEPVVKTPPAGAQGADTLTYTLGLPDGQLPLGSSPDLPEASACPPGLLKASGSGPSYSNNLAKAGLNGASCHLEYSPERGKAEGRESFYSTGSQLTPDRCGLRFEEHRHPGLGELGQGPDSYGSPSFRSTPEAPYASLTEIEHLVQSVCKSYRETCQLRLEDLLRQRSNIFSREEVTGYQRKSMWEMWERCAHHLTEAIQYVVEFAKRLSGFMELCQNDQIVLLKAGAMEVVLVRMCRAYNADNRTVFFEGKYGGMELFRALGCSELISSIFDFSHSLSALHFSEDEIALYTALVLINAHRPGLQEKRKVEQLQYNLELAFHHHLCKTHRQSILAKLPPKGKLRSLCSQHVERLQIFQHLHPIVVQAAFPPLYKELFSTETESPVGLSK
Procedure: The Jurkat cells used for the reporter test were cultured in a culture medium (RPMI (Invitrogen), 10% FCS (AusGeneX), 100 U/mL penicillin, 100 μg/mL streptomycin). On the day of the test, 4×10^7 cells were recovered by a centrifugal operation (1000 rpm, for 5 min) and suspended in PBS (phosphate buffered saline) (Invitrogen). Thereafter, the cells were recovered again by a centrifugal operation, and suspended in 2 mL of R buffer (NEON transfection kit, Invitrogen). […] Gene transfer was performed by Electroporation apparatus (NEON, Invitrogen) under the conditions of pulse voltage 1350 V, interval 10 milliseconds, number of times 3. The cells after gene transfer were suspended in 40 mL of a reaction medium (RPMI, 10% Lipid reduced FCS (HyClone), 10 mM HEPES (pH 7.5), 100 U/mL penicillin, 100 μg/mL streptomycin, 5 μM lovastatin), and plated in a 96 well plate by 90 μL. A test compound diluted with the reaction medium was added by 10 μL, and the cells were cultured overnight in an incubator. Bright-Glo (Promega) was added by 100 μL, and the mixture was stirred at room temperature for 10 min, and the luminescence level was measured by Envision (PerkinElmer).

RORγt [2] = target: T1, RORγt; assay: RORγt binding test using fluorescent-labeled synthetic ligand (TR-FRET); conditions: for inhibition at 1 µM: test compound 1 μM, read-out: binding inhibitory rate (%) of fluorescent-labeled synthetic ligand to RORγt at test compound 1 μM
Procedure: RORγt Binding Test Using Fluorescent-Labeled Synthetic Ligand
The binding activity of the test compound to RORγt was measured by a time resolved fluorescence resonance energy transfer (TR-FRET) utilizing histidine-tagged RORγt, fluorescent-labeled synthetic ligand, and terbium-labeled anti-histidine tag antibody (Invitrogen). First, a test compound diluted with an assay buffer (20 mM Tris-HCl (pH 7.5), 100 mM NaCl, 1 mM DTT, 0.1% BSA) was added to a 384 well plate by 3 μL. Then, RORγt diluted with an assay buffer to 240 nM was added by 3 μL, after which fluorescent-labeled synthetic ligand diluted with the assay buffer to 12 μM was added by 3 μL, and the mixture was stood at room temperature for 20 min. Thereafter, a terbium-labeled anti-histidine tag antibody diluted with the assay buffer to 8 nM was added by 3 μL. The mixture was stood at room temperature for 20 min, and fluorescence intensity (excitation wavelength 320 nm, fluorescence wavelength 520 nm, delay time 100 microseconds) was measured by Envision (PerkinElmer).

RORγt [3] = target: T1, RORγt; assay: Cofactor recruitment test (Alpha Screen, biotinylated SRC-1 peptide); assay type: biochemical; conditions: for inhibition at 1 µM: read-out: signal value inhibitory rate (%) at test compound 1 μM
Procedure: Cofactor Recruitment Test
Cofactor recruitment test was performed by Alpha Screen (Histidine Detection Kit, PerkinElmer) method. First, a test compound was diluted with an assay buffer (50 mM Tris-HCl (pH 7.5), 50 mM KCl, 1 mM DTT, 0.1% BSA) and added to a 384 well plate by 5 μL. […] The mixture was stood in a dark place for 1 hr, and the signal value was measured by Envision (PerkinElmer).

SMILES | inhibition at 3 µM (RORγt [1]) | inhibition at 1 µM (RORγt [2]) | inhibition at 1 µM (RORγt [3]) | luminescence level inhibitory rate (%) at test compound 3 μM (RORγt [1]) | binding inhibitory rate (%) of fluorescent-labeled synthetic ligand to RORγt at test compound 1 μM (RORγt [2]) | signal value inhibitory rate (%) at test compound 1 μM (RORγt [3]; test compound 1 μM)
CC(C)n1c(=O)n(C[C@@H]2CCCO2)c(=O)c2cc(NC(=O)N3CCO[C@@H](C(=O)Nc4ccc(C#N)c(Cl)c4)C3)c(F)cc21 [Example 357, (2R)—N^2-(3-chloro-4-cyanophenyl)-N^4-(7-fluoro-1-isopropyl-2,4-dioxo-3-((2S)-tetrahydrofuran-2-ylmethyl)-1,2,3,4-tetrahydroquinazolin-6-yl)morpholine-2,4-dicarboxamide] | 106% | 101% | 107% | – | – | –
CC(C)n1c(=O)n(CC2CC2(F)F)c(=O)c2cc(NC(=O)N3CCOC(C(=O)Nc4ccc(C#N)c(Cl)c4)C3)c(F)cc21 (single isomer, unassigned) [Example 368, (2R)—N^2-(3-chloro-4-cyanophenyl)-N^4-(3-(((1R or 1S)-2,2-difluorocyclopropyl)methyl)-7-fluoro-1-isopropyl-2,4-dioxo-1,2,3,4-tetrahydroquinazolin-6-yl)morpholine-2,4-dicarboxamide (one stereoisomer, quinazolinedione: derived from tR2)] | – | – | – | 108% | 102% | 105%
CC(C)n1c(=O)n(CC2CC2)c(=O)c2cc(NC(=O)N3CCOC(C(=O)Nc4ccc(C#N)c(F)c4)C3)ccc21 (stereo not drawn) [Example 176, N^2-(4-cyano-3-fluorophenyl)-N^4-(3-(cyclopropylmethyl)-1-isopropyl-2,4-dioxo-1,2,3,4-tetrahydroquinazolin-6-yl)morpholine-2,4-dicarboxamide] | 100% | 101% | 111% | – | – | –
CC(C)n1c(=O)n(CC2CC2)c(=O)c2cc(NC(=O)N3CCO[C@@H](C(=O)Nc4cc(F)c(C#N)cc4F)C3)ccc21 [Example 168, (2R)-N^2-(4-cyano-2,5-difluorophenyl)-N^4-(3-(cyclopropylmethyl)-1-isopropyl-2,4-dioxo-1,2,3,4-tetrahydroquinazolin-6-yl)morpholine-2,4-dicarboxamide] | 102% | 102% | 108% | – | – | –
CC(C)n1c(=O)n(CC2CC2)c(=O)c2cc(NC(=O)N3CCO[C@@H](C(=O)Nc4cc(Cl)c(C#N)cc4F)C3)c(F)cc21 [Example 347, (2R)—N^2-(5-chloro-4-cyano-2-fluorophenyl)-N^4-(3-(cyclopropylmethyl)-7-fluoro-1-isopropyl-2,4-dioxo-1,2,3,4-tetrahydroquinazolin-6-yl)morpholine-2,4-dicarboxamide] | 107% | 102% | 107% | – | – | –
CC(C)n1c(=O)n(CC2CC2)c(=O)c2cc(NC(=O)[C@@H]3CCC[C@@H]3NC(=O)c3ccc(C#N)cc3)ccc21 [Example 264, 4-cyano-N-((1S,2R)-2-((3-(cyclopropylmethyl)-1-isopropyl-2,4-dioxo-1,2,3,4-tetrahydroquinazolin-6-yl)carbamoyl)cyclopentyl)benzamide] | 102% | 102% | 110% | – | – | –

Continued, in another order:

inhibition at 3 µM (RORγt [1]) | inhibition at 1 µM (RORγt [2]) | inhibition at 1 µM (RORγt [3]) | SMILES | luminescence level inhibitory rate (%) at test compound 3 μM (RORγt [1]) | binding inhibitory rate (%) of fluorescent-labeled synthetic ligand to RORγt at test compound 1 μM (RORγt [2]) | signal value inhibitory rate (%) at test compound 1 μM (RORγt [3]; test compound 1 μM)
102% | 102% | 108% | Cc1nc2cc(C(=O)N[C@@H]3CCCN(C(=O)Nc4cc5c(=O)n(CC6CC6)c(=O)n(C(C)C)c5cc4F)C3)ccc2o1 [Example 296, N-((3R)-1-((3-(cyclopropylmethyl)-7-fluoro-1-isopropyl-2,4-dioxo-1,2,3,4-tetrahydroquinazolin-6-yl)carbamoyl)piperidin-3-yl)-2-methyl-1,3-benzoxazole-5-carboxamide] | – | – | –
104% | 102% | 105% | COc1ccc(C(=O)N[C@@H]2CCCN(C(=O)Nc3ccc4c(c3)c(=O)n(CC3CC3)c(=O)n4C(C)C)C2)cc1 [Example 244, (3R)-N-(3-(cyclopropylmethyl)-1-isopropyl-2,4-dioxo-1,2,3,4-tetrahydroquinazolin-6-yl)-3-((4-methoxybenzoyl)amino)piperidine-1-carboxamide] | – | – | –
104% | 102% | 104% | CC(C)n1c(=O)n(CC2CC2)c(=O)c2cc(NC(=O)N3CCC[C@@H](NC(=O)c4cccc(Cl)c4)C3)ccc21 [Example 248, (3R)-3-((3-chlorobenzoyl)amino)-N-(3-(cyclopropylmethyl)-1-isopropyl-2,4-dioxo-1,2,3,4-tetrahydroquinazolin-6-yl)piperidine-1-carboxamide] | – | – | –
101% | 102% | 89% | CC(C)n1c(=O)n(CC2CC2)c(=O)c2cc(NC(=O)N3CCC[C@@H](NC(=O)c4ccc(CNC(=O)OC(C)(C)C)cc4)C3)ccc21 [Example 274, tert-Butyl (4-(((3R)-1-((3-(cyclopropylmethyl)-1-isopropyl-2,4-dioxo-1,2,3,4-tetrahydroquinazolin-6-yl)carbamoyl)piperidin-3-yl)carbamoyl)benzyl) carbamate] | – | – | –
103% | 102% | 103% | CC(C)n1c(=O)n(CC2CC2)c(=O)c2cc(NC(=O)N3CCNC(C(=O)Nc4ccc(C#N)c(F)c4)C3)ccc21 (stereo not drawn) [Example 92, N^3-(4-cyano-3-fluorophenyl)-N^1-(3-(cyclopropylmethyl)-1-isopropyl-2,4-dioxo-1,2,3,4-tetrahydroquinazolin-6-yl)piperazine-1,3-dicarboxamide hydrochloride] | – | – | –
105% | 102% | 111% | CC(C)n1c(=O)n(CC2CC2)c(=O)c2cc(NC(=O)N3CCO[C@@H](C(=O)Nc4ccc(C#N)c(F)c4)C3)c(F)cc21 [Example 172, (2R)-N^2-(4-cyano-3-fluorophenyl)-N^4-(3-(cyclopropylmethyl)-7-fluoro-1-isopropyl-2,4-dioxo-1,2,3,4-tetrahydroquinazolin-6-yl)morpholine-2,4-dicarboxamide] | – | – | –
108% | 102% | 94% | CCNC(=O)OCc1ccc(C(=O)N[C@@H]2CCCN(C(=O)Nc3cc4c(=O)n(CC5CC5)c(=O)n(C(C)C)c4cc3F)C2)cc1 [Example 315, 4-(((3R)-1-((3-(cyclopropylmethyl)-7-fluoro-1-isopropyl-2,4-dioxo-1,2,3,4-tetrahydroquinazolin-6-yl)carbamoyl)piperidin-3-yl)carbamoyl)benzyl ethylcarbamate] | – | – | –
102% | 102% | 102% | CC(C)n1c(=O)n(CC2CC2)c(=O)c2cc(NC(=O)N3CCCC(NC(=O)c4ccc(C#N)c(Cl)c4)C3)ccc21 (stereo not drawn) [Example 88, 3-((3-chloro-4-cyanobenzoyl)amino)-N-(3-(cyclopropylmethyl)-1-isopropyl-2,4-dioxo-1,2,3,4-tetrahydroquinazolin-6-yl)piperidine-1-carboxamide] | – | – | –
103% | 101% | 95% | CC(C)n1c(=O)n(CC2CC2)c(=O)c2cc(NC(=O)N3CCC[C@@H](NC(=O)c4ccc(CNC(=O)OC(C)(C)C)cc4)C3)c(F)cc21 [Example 319, tert-Butyl (4-(((3R)-1-((3-(cyclopropylmethyl)-7-fluoro-1-isopropyl-2,4-dioxo-1,2,3,4-tetrahydroquinazolin-6-yl)carbamoyl)piperidin-3-yl)carbamoyl)benzyl)carbamate] | – | – | –
